Assay: Cytotoxicity against human HepG2(2.2.15) cells
Assay type: functional, cell-based

Structure (SMILES) | IC50
COc1cccc2c1cc([N+](=O)[O-])c1c(C(=O)O[C@H]3/C=C(/C=O)CC/C=C(\C)CC/C=C(\C)C3)cc3c(c12)OCO3 | 5.44 µM
COc1cccc2c1cc([N+](=O)[O-])c1c(C(=O)O[C@H]3/C=C(\C=O)CC/C=C(\C)CC/C=C(\C)C3)cc3c(c12)OCO3 | 4.83 µM
C/C1=C\CC/C(C=O)=C\[C@H](OC(=O)c2cc3c(c4c2c([N+](=O)[O-])cc2ccccc24)OCO3)C/C(C)=C/CC1 | 7.53 µM
C/C1=C\CC/C(C=O)=C/[C@H](OC(=O)c2cc3c(c4c2c([N+](=O)[O-])cc2ccccc24)OCO3)C/C(C)=C/CC1 | 8.23 µM

— ChEMBL document CHEMBL1158027, “Sesquiterpene esters of aristolochic acid from the root and stem of Aristolochia heterophylla” (J Nat Prod, 1999)
